The record followed here is patent publication US8933099B2, “Monocyclic pyridine derivative” (Eisai R&D Management Co., Ltd., priority 2013, dated 2015).

For assay [1], the system named is human stomach cancer cell line SNU-16 (FGFR2 gene amplification). The assay can be described thus: SNU-16 growth inhibition assay. It counts as cell-based. Conditions: Homo sapiens, SNU-16, 72 h, read-out: SNU-16 (IC50 (nM)), cell growth, 3 days, Cell Counting Kit-8. As for the experimental part:
In this assay, the growth inhibitory activity of a test substance in a human stomach cancer cell line harboring FGFR2 gene amplification is measured.
Then, 10 μL of Cell Counting Kit-8 (Dojindo Laboratories, CK04) was added to each well, and the resultant was incubated for 1 to 2 hours in a 5% CO2 incubator (37° C.) to cause a color reaction. The absorbance value was measured with ENVISION™ (PerkinElmer Co., Ltd.) at 450 nm.

Assay [2] relates to normal human umbilical vein endothelial cells (HUVEC). The assay can be described thus: HUVEC growth inhibition assay (VEGF-induced). It counts as cell-based. Particulars: Homo sapiens, HUVEC, 72 h, read-out: HUVEC (IC50 (nM)), growth in the presence of VEGF 10 ng/mL, 3 days. As for the experimental part:
The absorbance value was measured with ENVISION™ (PerkinElmer Co., Ltd.) at 450 nm. The absorbance values of the wells without adding the test substance but with VEGF addition was defined as 100% and the absorbance values of the wells with neither the test substance nor VEGF addition was defined as 0%.

Take `CNC(=O)n1ccc2cc(Oc3ccnc(NC(=O)c4ccc(C5CCN(C(C)C)CC5)cc4)c3)c(OCCOC)cc21` [Example 23, 5-((2-(4-(1-Isopropylpiperidin-4-yl)benzamide)pyridin-4-yl)oxy)-6-(2-methoxyethoxy)-N-methyl-1H-indole-1-carboxamide]: the IC50 in assay [1] was 6.5 nM; in assay [2] it was 300 nM.

On to `CCOCCOc1cc2c(ccn2C(=O)NC)cc1Oc1ccnc(NC(=O)c2ccc(C3CN(CCO)C3)cc2)c1` [Example 27, 6-(2-Ethoxyethoxy)-5-((2-(4-(1-(2-hydroxyethyl)azetidin-3-yl)benzamide)pyridin-4-yl)oxy)-N-methyl-1H-indole-1-carboxamide], for which the IC50 in assay [1] came out at 6.2 nM; in assay [2], 218 nM.

As to `CCOCCOc1cc2c(ccn2C(=O)NC)cc1Oc1ccnc(NC(=O)c2ccc(C3CCN(CC)CC3)nc2)c1` [Example 28, 6-(2-Ethoxyethoxy)-5-((2-(6-(1-ethylpiperidin-4-yl)nicotinamide)pyridin-4-yl)oxy)-N-methyl-1H-indole-1-carboxamide], the IC50 in assay [1] came out at 7.3 nM; in assay [2] it was 664 nM.

`CCOCCOc1cc2c(ccn2C(=O)NC)cc1Oc1ccnc(NC(=O)c2ccc(CN3CCC[C@H]3CO)cc2)c1` [Example 29]: the IC50 is 8.8 nM in assay [1] and 600 nM in assay [2].

With `CCOCCOc1cc2c(ccn2C(=O)NC)cc1Oc1ccnc(NC(=O)c2ccc(CN3CC[C@@H](O)C3)s2)c1` [Example 31], the IC50 in assay [1] is 4.7 nM; in assay [2] it was 186 nM.

In the case of `CCN1CCC(c2ccc(C(=O)Nc3cc(Oc4cc5ccn(C(=O)NC)c5cc4OCCCF)ccn3)cc2)CC1` [Example 33, 5-((2-(4-(1-Ethylpiperidin-4-yl)benzamide)pyridin-4-yl)oxy)-6-(3-fluoropropoxy)-N-methyl-1H-indole-1-carboxamide], the IC50 came to 8.1 nM in assay [1] and 274 nM in assay [2].

`CNC(=O)n1ccc2cc(Oc3ccnc(NC(=O)c4ccc(CN5CCC[C@@H]5CO)s4)c3)c(OC)cc21` [Example 34]: the IC50 in assay [1] worked out at 14 nM; in assay [2], 195 nM.

Consider `CNC(=O)n1ccc2cc(Oc3ccnc(NC(=O)c4ccc(CN5CCC[C@H]5CO)s4)c3)c(OC)cc21` [Example 35], for which the IC50 in assay [1] was determined as 9.8 nM; in assay [2], 139 nM.

On to `CNC(=O)n1ccc2cc(Oc3ccnc(NC(=O)c4ccc(CN5C[C@@H](C)N[C@@H](C)C5)s4)c3)c(OC)cc21` [Example 36], for which the IC50 is 11 nM in assay [1] and 136 nM in assay [2].

In the case of `CCN1CCN(Cc2ccc(C(=O)Nc3cc(Oc4cc5ccn(C(=O)NC)c5cc4OC)ccn3)s2)CC1` [Example 37], the results for the IC50 in assay [1] and in assay [2] were 9.4 nM and 79.1 nM, respectively.

`CNC(=O)n1ccc2cc(Oc3ccnc(NC(=O)c4ccc(CN5CCC(O)CC5)s4)c3)c(OC)cc21` [Example 38]: the IC50 in assay [1] turned out to be 8 nM; in assay [2], 137 nM.

With `CNC(=O)n1ccc2cc(Oc3ccnc(NC(=O)c4ccc(C5CCN(CC(C)(C)O)CC5)cc4)c3)c(OC)cc21` [Example 39], the IC50 in assay [1] worked out at 7.8 nM; in assay [2], 124 nM.

As to `CNC(=O)n1ccc2cc(Oc3ccnc(NC(=O)c4ccc(C5CCN(C(C)C)CC5)cc4)c3)c(OC)cc21` [Example 40], the IC50 in assay [1] is 8.3 nM; in assay [2], 162 nM.

For `CNC(=O)n1ccc2cc(Oc3ccnc(NC(=O)c4ccc(OC5CCN(C[C@@H](C)O)CC5)cc4)c3)c(OC)cc21` [Example 41], the results for the IC50 in assay [1] and in assay [2] were 9.3 nM and 179 nM, respectively.

As to `CNC(=O)n1ccc2cc(Oc3ccnc(NC(=O)c4ccc(OC5CCN(C[C@H](C)O)CC5)cc4)c3)c(OC)cc21` [Example 42], the IC50 in assay [1] amounted to 14.1 nM; in assay [2], 184 nM.

Regarding `CCN1CCC(Oc2ccc(C(=O)Nc3cc(Oc4cc5ccn(C(=O)NC)c5cc4OC)ccn3)cc2)CC1` [Example 43], the IC50 was 11.8 nM in assay [1] and 166 nM in assay [2].

As for `CNC(=O)n1ccc2cc(Oc3ccnc(NC(=O)c4cnn(C5CCN(C[C@@H](C)O)CC5)c4)c3)c(OC)cc21` [Example 44], the values for the IC50 in assay [1] and in assay [2] were 16.3 nM and 392 nM, respectively.
